According to the NIST ThermoML archive (doi:10.1021/je900600c):

Assays:
[1] = xn = mol fraction of the nth substance listed; conditions: 101 kPa, Liquid; for electrical conductivity: Frequency=0.0005 MHz, crison conductivimeter
[2] = 101 kPa, Liquid; for electrical conductivity: Frequency=0.0005 MHz, crison conductivimeter

CCCCCCn1cc[n+](C)c1.F[B-](F)(F)F [1-hexyl-3-methylimidazolium tetrafluoroborate] + O
[1]
Conditions	electrical conductivity [S/m]	viscosity [mPa·s]
288.15 K, x2 = 0	–	357.5
288.15 K, x2 = 0.1101	–	200.6
288.15 K, x2 = 0.1679	–	151
288.15 K, x2 = 0.2812	–	100.3
288.15 K, x2 = 0.3581	–	65.4
288.15 K, x2 = 0.4907	0.625	–
288.15 K, x2 = 0.4987	–	38.7
288.15 K, x2 = 0.5075	–	36.4
288.15 K, x2 = 0.573	–	29.4
288.15 K, x2 = 0.72	–	17.55
298.15 K, x2 = 0	0.126	190.9
298.15 K, x2 = 0.1101	–	113.9
298.15 K, x2 = 0.1164	0.202	–
298.15 K, x2 = 0.1679	–	89.1
298.15 K, x2 = 0.2364	0.337	–
298.15 K, x2 = 0.2812	–	61.6
298.15 K, x2 = 0.3232	0.484	–
298.15 K, x2 = 0.3581	–	41.6
298.15 K, x2 = 0.3942	0.627	–
298.15 K, x2 = 0.4548	0.798	–
298.15 K, x2 = 0.4907	0.983	–
298.15 K, x2 = 0.4987	–	25.5
298.15 K, x2 = 0.5075	–	24
298.15 K, x2 = 0.5294	1.06	–
298.15 K, x2 = 0.573	–	19.6
298.15 K, x2 = 0.5896	1.31	–
298.15 K, x2 = 0.652	1.62	–
298.15 K, x2 = 0.7184	1.99	–
298.15 K, x2 = 0.72	–	10.82
308.15 K, x2 = 0	–	110.3
308.15 K, x2 = 0.1101	–	69.4
308.15 K, x2 = 0.1679	–	56.2
308.15 K, x2 = 0.2812	–	40.3
308.15 K, x2 = 0.3581	–	28.1
308.15 K, x2 = 0.4907	1.38	–
308.15 K, x2 = 0.4987	–	17.72
308.15 K, x2 = 0.5075	–	16.76
308.15 K, x2 = 0.573	–	13.83
308.15 K, x2 = 0.72	–	7.76
318.15 K, x2 = 0	–	68.5
318.15 K, x2 = 0.1101	–	45.1
318.15 K, x2 = 0.1679	–	37.5
318.15 K, x2 = 0.2812	–	27.8
318.15 K, x2 = 0.3581	–	19.89
318.15 K, x2 = 0.4907	1.65	–
318.15 K, x2 = 0.4987	–	12.92
318.15 K, x2 = 0.5075	–	12.25
318.15 K, x2 = 0.573	–	10.19
318.15 K, x2 = 0.72	–	5.85

CCCCn1cc[n+](C)c1.F[B-](F)(F)F [1-butyl-3-methylimidazolium tetrafluoroborate]
[2]
Conditions	electrical conductivity [S/m]	viscosity [mPa·s]
288.15 K	–	173.5
298.15 K	0.352	99.2
308.15 K	–	61.3
318.15 K	–	40.4

O [water]
[2]
Conditions	viscosity [mPa·s]
288.15 K	1.137
298.15 K	0.89
308.15 K	0.719
318.15 K	0.597

CCCCCCn1cc[n+](C)c1.F[B-](F)(F)F [1-hexyl-3-methylimidazolium tetrafluoroborate]
[2]
Conditions	electrical conductivity [S/m]	viscosity [mPa·s]
288.15 K	–	357.5
298.15 K	0.126	190.9
308.15 K	–	110.3
318.15 K	–	68.5

O [water] + CCn1cc[n+](C)c1.F[B-](F)(F)F
[1], x1 = 1
Conditions	viscosity [mPa·s]
288.15 K	1.137
298.15 K	0.89
308.15 K	0.719
318.15 K	0.597

CCn1cc[n+](C)c1.F[B-](F)(F)F [1-ethyl-3-methylimidazolium tetrafluoroborate] + O
[1]
Conditions	electrical conductivity [S/m]	viscosity [mPa·s]
288.15 K, x2 = 0	–	55.5
288.15 K, x2 = 0.0985	–	36.2
288.15 K, x2 = 0.2191	–	23.88
288.15 K, x2 = 0.3053	–	18.26
288.15 K, x2 = 0.3982	–	13.26
288.15 K, x2 = 0.4916	–	10.29
288.15 K, x2 = 0.4933	4	–
288.15 K, x2 = 0.5989	–	7.28
288.15 K, x2 = 0.6991	–	5.43
288.15 K, x2 = 0.8029	–	3.18
288.15 K, x2 = 0.8991	–	2.32
298.15 K, x2 = 0	1.63	36.9
298.15 K, x2 = 0.0985	–	25.2
298.15 K, x2 = 0.2191	–	16.66
298.15 K, x2 = 0.3053	–	13.51
298.15 K, x2 = 0.3665	4.1	–
298.15 K, x2 = 0.3982	–	10.02
298.15 K, x2 = 0.4916	–	7.91
298.15 K, x2 = 0.4933	5.26	–
298.15 K, x2 = 0.5498	6.07	–
298.15 K, x2 = 0.5989	–	5.62
298.15 K, x2 = 0.6599	7.64	–
298.15 K, x2 = 0.6991	–	4.23
298.15 K, x2 = 0.7332	8.15	–
298.15 K, x2 = 0.7856	8.44	–
298.15 K, x2 = 0.8029	–	2.5
298.15 K, x2 = 0.8249	8.52	–
298.15 K, x2 = 0.8555	8.47	–
298.15 K, x2 = 0.8799	8.36	–
298.15 K, x2 = 0.8991	–	1.82
298.15 K, x2 = 0.8999	8.18	–
298.15 K, x2 = 0.9166	7.9	–
298.15 K, x2 = 0.9307	7.43	–
298.15 K, x2 = 0.9428	7.1	–
298.15 K, x2 = 0.9533	6.56	–
298.15 K, x2 = 0.9625	6.13	–
298.15 K, x2 = 0.9706	5.43	–
298.15 K, x2 = 0.9778	4.76	–
298.15 K, x2 = 0.9842	4.03	–
298.15 K, x2 = 0.99	2.95	–
298.15 K, x2 = 0.9952	1.79	–
308.15 K, x2 = 0	–	26
308.15 K, x2 = 0.0985	–	18.45
308.15 K, x2 = 0.2191	–	12.64
308.15 K, x2 = 0.3053	–	10.39
308.15 K, x2 = 0.3982	–	7.85
308.15 K, x2 = 0.4916	–	6.26
308.15 K, x2 = 0.4933	5.9	–
308.15 K, x2 = 0.5989	–	4.49
308.15 K, x2 = 0.6991	–	3.4
308.15 K, x2 = 0.8029	–	2.03
308.15 K, x2 = 0.8991	–	1.477
318.15 K, x2 = 0	–	19.17
318.15 K, x2 = 0.0985	–	14.01
318.15 K, x2 = 0.2191	–	9.9
318.15 K, x2 = 0.3053	–	8.23
318.15 K, x2 = 0.3982	–	6.33
318.15 K, x2 = 0.4916	–	5.09
318.15 K, x2 = 0.4933	6.95	–
318.15 K, x2 = 0.5989	–	3.68
318.15 K, x2 = 0.6991	–	2.81
318.15 K, x2 = 0.8029	–	1.696
318.15 K, x2 = 0.8991	–	1.2

CCn1cc[n+](C)c1.F[B-](F)(F)F [1-ethyl-3-methylimidazolium tetrafluoroborate]
[2]
Conditions	electrical conductivity [S/m]	viscosity [mPa·s]
288.15 K	–	55.5
298.15 K	1.63	36.9
308.15 K	–	26
318.15 K	–	19.17
